Source: ChEMBL document CHEMBL1938312, “Design and combinatorial synthesis of a novel kinase-focused library using click chemistry-based fragment assembly” (Bioorg Med Chem Lett, 2012)

Legend:
[1] = target: T1, Receptor-type tyrosine-protein kinase FLT3 (Homo sapiens, UniProt P36888); assay: Inhibition of FLT3 by colorimetric analysis
T1 sequence (P36888 whole entry): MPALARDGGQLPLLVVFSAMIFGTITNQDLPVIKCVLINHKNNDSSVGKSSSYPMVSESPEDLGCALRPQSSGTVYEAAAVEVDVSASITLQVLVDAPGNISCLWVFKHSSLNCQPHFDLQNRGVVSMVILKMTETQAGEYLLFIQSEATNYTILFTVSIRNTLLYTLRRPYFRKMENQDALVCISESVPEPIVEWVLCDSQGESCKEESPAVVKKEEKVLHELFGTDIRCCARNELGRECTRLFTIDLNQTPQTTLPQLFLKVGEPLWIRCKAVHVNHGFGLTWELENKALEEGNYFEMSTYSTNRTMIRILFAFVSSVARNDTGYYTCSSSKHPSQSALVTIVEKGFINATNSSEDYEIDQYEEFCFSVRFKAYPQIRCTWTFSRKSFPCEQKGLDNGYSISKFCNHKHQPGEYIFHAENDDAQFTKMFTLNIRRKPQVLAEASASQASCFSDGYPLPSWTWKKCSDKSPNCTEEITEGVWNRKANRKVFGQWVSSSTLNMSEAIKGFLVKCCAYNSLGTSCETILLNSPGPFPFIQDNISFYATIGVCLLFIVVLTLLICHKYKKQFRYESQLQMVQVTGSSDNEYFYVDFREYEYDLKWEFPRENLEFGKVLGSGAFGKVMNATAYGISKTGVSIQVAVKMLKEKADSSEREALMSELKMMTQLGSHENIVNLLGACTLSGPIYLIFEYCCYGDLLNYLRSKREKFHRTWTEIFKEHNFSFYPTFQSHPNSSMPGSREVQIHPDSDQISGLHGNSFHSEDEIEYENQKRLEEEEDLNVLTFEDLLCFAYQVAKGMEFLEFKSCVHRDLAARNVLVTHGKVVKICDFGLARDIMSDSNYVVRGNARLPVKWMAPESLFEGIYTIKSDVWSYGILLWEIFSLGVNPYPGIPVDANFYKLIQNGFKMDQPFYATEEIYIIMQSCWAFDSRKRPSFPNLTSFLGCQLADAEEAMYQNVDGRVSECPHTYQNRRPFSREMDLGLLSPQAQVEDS

[2] = target: Glycogen synthase kinase-3 beta (Homo sapiens, UniProt P49841); assay: Inhibition of GSK3-beta by colorimetric analysis
Sequence of Glycogen synthase kinase-3 beta (P49841 whole entry): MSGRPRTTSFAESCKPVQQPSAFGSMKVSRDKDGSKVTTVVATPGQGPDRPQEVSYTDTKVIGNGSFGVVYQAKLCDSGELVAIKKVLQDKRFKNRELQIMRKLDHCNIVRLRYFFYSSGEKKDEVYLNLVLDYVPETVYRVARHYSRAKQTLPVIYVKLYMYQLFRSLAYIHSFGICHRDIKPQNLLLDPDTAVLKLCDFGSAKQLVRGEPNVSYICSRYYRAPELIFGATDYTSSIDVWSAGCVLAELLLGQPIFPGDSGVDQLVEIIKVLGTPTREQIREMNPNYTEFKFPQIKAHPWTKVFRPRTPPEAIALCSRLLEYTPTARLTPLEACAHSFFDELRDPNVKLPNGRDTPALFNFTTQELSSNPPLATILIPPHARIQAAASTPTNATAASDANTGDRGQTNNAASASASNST

Structure (SMILES): c1cnc2cc(-c3cn(CCN4CCOCC4)nn3)ccc2n1
- IC50 [1]: 10.9 µM

Structure (SMILES): Cc1ccc(-n2cc(-c3ccccn3)nn2)cc1
- IC50 [1]: 1.1 µM
- IC50 [2]: > 30 µM

Structure (SMILES): c1cnc2cc(-c3cnnn3C3C4CC5CC(C4)CC3C5)ccc2n1 (stereo unspecified)
- IC50 [1]: 3.1 µM
- IC50 [2]: 2.8 µM

Structure (SMILES): Fc1ccc(-n2cc(-c3ccc4nccnc4c3)nn2)cc1
- IC50 [1]: 12.4 µM

Structure (SMILES): c1cc(-c2cnnn2C2C3CC4CC(C3)CC2C4)ccn1 (stereo unspecified)
- IC50 [1]: 4.8 µM
- IC50 [2]: 2.6 µM

Structure (SMILES): Clc1ccc(-n2cc(-c3ccccn3)nn2)cc1
- IC50 [1]: 6.3 µM

Structure (SMILES): c1ccc(-c2cnnn2C2C3CC4CC(C3)CC2C4)nc1 (stereo unspecified)
- IC50 [1]: 10.2 µM

Structure (SMILES): Fc1ccc(-n2cc(-c3ccccn3)nn2)cc1
- IC50 [1]: 6.7 µM

Structure (SMILES): Cc1ccccc1-n1cc(-c2ccccn2)nn1
- IC50 [1]: 9.3 µM
- IC50 [2]: 0.49 µM

Structure (SMILES): Cc1ccc(-n2cc(-c3ccncc3)nn2)cc1
- IC50 [1]: 6.6 µM

Structure (SMILES): c1cnc2cc(-c3cn(C4C5CC6CC(C5)CC4C6)nn3)ccc2n1 (stereo unspecified)
- IC50 [1]: 9.7 µM

Structure (SMILES): c1ccc(Cn2cc(-c3ccc4nccnc4c3)nn2)cc1
- IC50 [1]: 6.3 µM
- IC50 [2]: 9.5 µM

Structure (SMILES): Cc1ccccc1-n1nncc1-c1ccncc1
- IC50 [1]: 6.2 µM
- IC50 [2]: 6.3 µM

Structure (SMILES): Fc1ccc(-n2nncc2-c2ccncc2)cc1
- IC50 [1]: 1.4 µM

Structure (SMILES): Cc1ccc(-n2nncc2-c2ccncc2)cc1
- IC50 [1]: 2.3 µM
